Experimental data reported in ChEMBL document CHEMBL1201862, “PubChem BioAssay data set” (2004).
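Interpolation was linear, between the two tested concentrations surrounding the appropriate level; five concentrations were tested over 48 hours in 96-well plates. At the GI50, growth is halved.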 The source made the active and inactive calls. Rule as the data show it: active = GI50 up to about 1.1 µM and inactive = higher.

Tests used:
Assay in all cases: NCI tumour cell line growth inhibition, 48 h
[1] = system: SK-MEL-28
[2] = system: SNB-19
[3] = system: MDA-MB-435
[4] = system: MOLT-4
[5] = system: SW-620
[6] = system: Hs-578T
[7] = system: RPMI-8226
[8] = system: NCI/ADR-RES
[9] = system: SF-268
[10] = system: NCI-H23
[11] = system: HCT-15
[12] = system: NCI-H522
[13] = system: 786-0
[14] = system: A549
[15] = system: HCC 2998
[16] = system: CCRF-CEM
[17] = system: SK-MEL-5
[18] = system: EKVX
[19] = system: SK-MEL-2
[20] = system: RXF 393
[21] = system: LOX IMVI
[22] = system: M14
[23] = system: IGROV-1
[24] = system: SR
[25] = system: HL-60
[26] = system: Malme-3M
[27] = system: UO-31
[28] = system: HCT-116
[29] = system: SF-539
[30] = system: COLO 205
[31] = system: NCI-H460
[32] = system: BT-549
[33] = system: OVCAR-8
[34] = system: HOP-62
[35] = system: HT-29
[36] = system: U-251
[37] = system: UACC-257
[38] = system: DU-145
[39] = system: OVCAR-4
[40] = system: KM12
[41] = system: HOP-92
[42] = system: OVCAR-3
[43] = system: PC-3
[44] = system: CAKI-1
[45] = system: UACC-62
[46] = system: A498
[47] = system: ACHN
[48] = system: NCI-H226
[49] = system: MCF7
[50] = system: MDA-N
[51] = system: K562
[52] = system: T47D
[53] = system: SF-295
[54] = system: SNB-75
[55] = system: SN12C
[56] = system: TK-10
[57] = system: OVCAR-5
[58] = system: MDA-MB-231
[59] = system: SK-OV-3

Measured: GI50

Cc1ccc(-c2n[nH]c(=O)[nH]2)cc1[N+](=O)[O-]
inactive: [1] > 100 µM | [2] > 100 µM | [3] > 100 µM | [4] > 100 µM | [5] > 100 µM | [6] 3.01 µM | [7] > 100 µM | [8] > 100 µM | [9] > 100 µM | [10] > 100 µM | [12] > 100 µM | [13] > 100 µM | [14] > 100 µM | [15] 63.4 µM | [16] > 100 µM | [17] > 100 µM | [19] > 100 µM | [20] > 100 µM | [21] > 100 µM | [22] > 100 µM | [23] > 100 µM | [24] > 100 µM | [25] > 100 µM | [26] > 100 µM | [27] 27.5 µM | [28] > 100 µM | [29] > 100 µM | [30] > 100 µM | [31] > 100 µM | [32] 36.8 µM | [33] > 100 µM | [34] > 100 µM | [35] > 100 µM | [36] > 100 µM | [37] > 100 µM | [38] > 100 µM | [39] > 100 µM | [40] > 100 µM | [41] > 100 µM | [42] > 100 µM | [43] > 100 µM | [44] > 100 µM | [45] > 100 µM | [46] > 100 µM | [47] > 100 µM | [48] > 100 µM | [49] > 100 µM | [50] > 100 µM | [51] > 100 µM | [52] > 100 µM | [53] > 100 µM | [54] 61 µM | [55] > 100 µM | [56] > 100 µM | [57] > 100 µM
> 100 µM: [11]
active: [18] 0.643 µM

CC(=O)Nc1ccc(Nc2cc(=O)n(C)c(=O)[nH]2)cc1
inactive: [1] > 100 µM | [2] > 100 µM | [3] > 100 µM | [4] > 100 µM | [5] > 100 µM | [6] > 100 µM | [7] > 100 µM | [8] > 100 µM | [9] > 100 µM | [10] > 100 µM | [12] > 100 µM | [13] > 100 µM | [14] > 100 µM | [15] > 100 µM | [16] > 100 µM | [17] > 100 µM | [18] > 100 µM | [19] > 100 µM | [58] > 100 µM | [20] > 100 µM | [21] > 100 µM | [22] > 100 µM | [23] > 100 µM | [24] > 100 µM | [26] > 100 µM | [27] > 100 µM | [28] > 100 µM | [29] > 100 µM | [30] > 100 µM | [31] > 100 µM | [32] > 100 µM | [33] > 100 µM | [34] > 100 µM | [35] > 100 µM | [36] > 100 µM | [37] > 100 µM | [39] > 100 µM | [40] > 100 µM | [41] > 100 µM | [42] > 100 µM | [59] > 100 µM | [43] > 100 µM | [44] > 100 µM | [45] > 100 µM | [46] > 100 µM | [47] > 100 µM | [48] > 100 µM | [49] > 100 µM | [50] > 100 µM | [51] > 100 µM | [52] > 100 µM | [53] > 100 µM | [54] > 100 µM | [55] > 100 µM | [56] > 100 µM | [57] > 100 µM
> 100 µM: [11]

CN1C2CCC1CC(CC(=O)NC(c1ccc(F)cc1)c1ccc(F)cc1)C2 (centres undefined)
inactive: [1] 22.5 µM | [2] > 100 µM | [3] 35.6 µM | [4] 81.1 µM | [5] > 100 µM | [6] > 100 µM | [7] 47 µM | [8] > 100 µM | [9] 98.4 µM | [10] > 100 µM | [12] > 100 µM | [13] 64.7 µM | [14] > 100 µM | [16] 2.2 µM | [17] 20.8 µM | [18] > 100 µM | [19] 22.5 µM | [58] > 100 µM | [20] > 100 µM | [21] 80 µM | [22] 18 µM | [23] > 100 µM | [24] 30.2 µM | [26] 27.5 µM | [27] 56.1 µM | [28] 59.7 µM | [29] 70 µM | [30] 21.5 µM | [31] > 100 µM | [32] > 100 µM | [33] > 100 µM | [34] > 100 µM | [35] 38.6 µM | [36] > 100 µM | [37] 20 µM | [38] > 100 µM | [39] > 100 µM | [40] > 100 µM | [41] 60 µM | [42] > 100 µM | [59] > 100 µM | [43] > 100 µM | [44] > 100 µM | [46] > 100 µM | [47] > 100 µM | [48] > 100 µM | [50] 41.9 µM | [51] 37.7 µM | [52] > 100 µM | [53] > 100 µM | [54] > 100 µM | [55] > 100 µM | [56] > 100 µM | [57] > 100 µM
> 100 µM: [11]
active: [25] 0.242 µM

O=C(/C=C/c1ccccc1)CCC1C(=O)NC(=O)NC1=O
> 100 µM: [11]
inactive: [1] > 100 µM | [2] > 100 µM | [3] > 100 µM | [4] 35.7 µM | [5] > 100 µM | [6] > 100 µM | [7] 43.4 µM | [8] > 100 µM | [9] > 100 µM | [10] > 100 µM | [12] > 100 µM | [13] > 100 µM | [14] > 100 µM | [15] > 100 µM | [17] > 100 µM | [18] > 100 µM | [19] > 100 µM | [58] > 100 µM | [21] > 100 µM | [22] > 100 µM | [23] > 100 µM | [25] > 100 µM | [26] > 100 µM | [27] > 100 µM | [28] > 100 µM | [29] > 100 µM | [30] > 100 µM | [31] > 100 µM | [32] > 100 µM | [33] > 100 µM | [35] > 100 µM | [36] > 100 µM | [37] > 100 µM | [38] > 100 µM | [39] > 100 µM | [40] > 100 µM | [41] > 100 µM | [42] > 100 µM | [59] > 100 µM | [43] > 100 µM | [44] > 100 µM | [45] > 100 µM | [46] > 100 µM | [47] > 100 µM | [48] > 100 µM | [49] > 100 µM | [50] > 100 µM | [51] 97.9 µM | [52] > 100 µM | [53] > 100 µM | [54] > 100 µM | [55] > 100 µM | [56] > 100 µM | [57] > 100 µM

COc1cc2c3c(n(CCCNCCO)c(=O)c2cc1OC)-c1cc2c(cc1C3=O)OCO2
active: [2] 0.012 µM | [4] < 0.01 µM | [5] 0.16 µM | [8] 0.546 µM | [9] < 0.0338 µM | [10] < 0.01 µM | [12] < 0.038 µM | [13] < 0.01 µM | [15] 0.536 µM | [16] < 0.01 µM | [17] 0.19 µM | [58] 0.537 µM | [21] < 0.01 µM | [22] 0.0422 µM | [23] 0.0935 µM | [24] < 0.01 µM | [25] < 0.0465 µM | [29] 0.0381 µM | [30] 0.392 µM | [31] < 0.01 µM | [32] 0.935 µM | [33] 0.158 µM | [35] < 0.0311 µM | [38] < 0.01 µM | [40] 0.541 µM | [42] 0.813 µM | [43] 1.02 µM | [45] 0.0236 µM | [46] 0.378 µM | [47] < 0.01 µM | [48] 0.206 µM | [49] < 0.01 µM | [50] 0.611 µM | [52] 0.0165 µM | [53] < 0.01 µM | [55] < 0.01 µM | [57] 0.384 µM
inactive: [6] 1.71 µM | [56] 1.38 µM
